Results as given in US9134300B2, “Method for screening a drug in retinal tissue” (Research Foundation of the City University of New York, priority 2011, dated 2015).

Test system: microtubules
Assay: Time-lapse second-harmonic generation imaging of retinal nerve fibers following treatment with nocodazole
Set-up: species or system rat
Conditions: retinal nerve fiber layer of retinal flat-mount; perfusion with medium containing nocodazole and 0.4% DMSO; treatment period 90 minutes
Description: Rat retinal flat-mounts were prepared from euthanized rats. The eyes were enucleated. A circumferential incision was made around the limbus and the cornea, lens, and vitreous humor were removed. Several radial cuts were made in the eye cup. The retina was isolated from the retinal pigment epithelium and the sclera and transferred to buffered Ames' medium (Sigma-Aldrich), which was bubbled with 95% oxygen and 5% carbon dioxide, and maintained at 34° C. and pH 7.4. The sample was transferred to a perfusion chamber with a transparent bottom (Warner Instruments) within 15 minutes after euthanasia. The retina was placed on the microscope stage with the retinal nerve fiber layer side up. The speed of laminar flow was approximate 1 mL per min.
Imaging: Simultaneous second-harmonic generation microscopy and two-photon excitation fluorescence microscopy were performed to image the fresh retina. The excitation wavelength utilized short pulses from a mode-locked Ti: Sapphire laser source with a duration of 100 fs at 80-MHz repetition rate. The excitation wavelength was 785 nm, except for the experiments where two excitation wavelengths at 785 and 880 nm are compared. […]
Fluorescence was detected in the backward beam path, which included a set of spectral filters (Chroma Technology), and photomultiplier tube (PMT) detectors (Hamamatsu). […]

## COC(=O)Nc1nc2ccc(C(=O)c3cccs3)cc2[nH]1 [nocodazole]
  intensity of microtubule second-harmonic generation signal: significantly reduced
